Values quoted from earlier work in US5942536A, “N-[2-substituted-3-(2-aminoethyl)-1H-indol-5-YL]-Amides: new 5-HT1F agonists” (Eli Lilly and Company, priority 1998, dated 1999).

Columns and labels:
5-HT1F receptor = biological target: T1, 5-HT1F receptor (Homo sapiens, UniProt P30939); settings: literature (Weinshank); reference for Emax
T1 sequence (P30939 1-366): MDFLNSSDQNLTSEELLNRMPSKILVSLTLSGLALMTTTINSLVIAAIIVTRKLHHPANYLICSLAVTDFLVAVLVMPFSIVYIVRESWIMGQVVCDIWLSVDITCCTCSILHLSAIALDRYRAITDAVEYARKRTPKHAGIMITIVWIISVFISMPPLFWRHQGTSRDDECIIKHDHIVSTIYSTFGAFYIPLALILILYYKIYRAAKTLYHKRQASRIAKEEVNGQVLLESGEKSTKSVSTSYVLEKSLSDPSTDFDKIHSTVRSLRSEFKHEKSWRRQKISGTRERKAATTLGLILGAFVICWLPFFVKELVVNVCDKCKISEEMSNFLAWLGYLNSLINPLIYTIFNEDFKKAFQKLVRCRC

[1] = literature (Humphrey, et al.)
neurogenic inflammation = settings: literature (Moskowitz)
[2] = tested on: cephalic vascular smooth muscle; settings: literature (Humphrey, et al.)

effect on forskolin stimulated cAMP production (5-HT1F receptor)	SMILES	effective in the treatment of migraine [1]	block of neurogenic inflammation (neurogenic inflammation)	contraction of cephalic vascular smooth muscle [2]
maximal effect	NCCc1c[nH]c2ccc(O)cc12 [serotonin]	–	–	–
–	CNS(=O)(=O)Cc1ccc2[nH]cc(CCN(C)C)c2c1 [sumatriptan]	effective in the treatment of migraine	blocked	contract cephalic vascular smooth muscle
